These are literature values, as cited in US9694043B2, “Composition for preventing or treating hearing loss” (UNIVERSITY-INDUSTRY COOPERATION GROUP OF KYUNG HEE …, priority 2011, dated 2017).

For one data set, the system named is animal model. Conditions: high level of NAC.
A further data set deals with soldiers. Particulars: 600 U.S. navy soldiers, NAC for 2 weeks during weapons training.

For `CC(=O)N[C@@H](CS)C(=O)O` [NAC, N-acetyl cysteine], the “Effect on noise-induced hearing loss in animal model” value in the data set with animal model is reported as “preventive effects on noise-induced hearing loss but limited effects on permanent hearing loss”. In the data set on soldiers, the Permanent hearing loss entry is “decrease in permanent hearing loss”.
